Results: paper PMC6368365, “Didehydro-Cortistatin A Inhibits HIV-1 by Specifically Binding to the Unstructured Basic Region of Tat” (mBio, 2019)

Target: T1, Hexim-1 binding to 7SK snRNP (Homo sapiens, UniProt O94992)
T1 construct: endogenous in cells; host or cells: HeLa-CD4-LTR-LacZ (RNA immunoprecipitation); HeLa-CD4-LTR-Luc (immunofluorescence)
Assay: RNA immunoprecipitation of 7SK snRNP by intracellular Hexim-1
Assay type: cell-based
Details: HeLa-CD4-LTR-LacZ cells, 48 h
Excerpt: (A) Sequence of the basic domains of HIV Tat HXB3, HIV Rev Bru and intracellular Hexim-1. […] Shown is confocal microscopy analysis of the subcellular localization of transfected FLAG-Tat or FLAG-Rev in the presence of DMSO or dCA in HeLa-CD4-LTR-Luc cells. Proteins were recognized with anti-FLAG and Alexa Fluor 568-tagged anti-IgG. Magnification 60×. Data are representative of n = 2 independent experiments. (C) Quantification of the nucleolar fluorescence of panel B using ImageJ. Data are the mean ± SEM from 3 to 4 different cells. […] HeLa-CD4-LTR-LacZ cells were infected with strain NL4-3 for 24 hours. The next day, compounds (dCA, 10 nM; KPT, 400 nM; and SCM, 10 nM) were added for 24 hours. Total, nuclear, and cytoplasmic mRNAs were extracted, and viral messages were determined by qRT-PCR. GAPDH was used for normalization. Data are the mean ± SD from n = 5 independent experiments. […] (G) Quantification of nuclear fluorescence of panel F using ImageJ. […] Statistical significance was determined using one-way ANOVA with post hoc Tukey’s test. ns, not significant; ***, P < 0.0001; **, P < 0.001.
Hexim-1 directly binds to cyclin T1 and is responsible for the inactivation of the kinase activity of P-TEFb ([35], [36]). […] Intracellular Hexim-1 was immunoprecipitated, and 7SK snRNP bound to Hexim-1 was extracted, reverse transcribed, and quantified by qRT-PCR as previously described ([42]) (Fig. 3E). […]

T1 sequence (O94992 whole entry): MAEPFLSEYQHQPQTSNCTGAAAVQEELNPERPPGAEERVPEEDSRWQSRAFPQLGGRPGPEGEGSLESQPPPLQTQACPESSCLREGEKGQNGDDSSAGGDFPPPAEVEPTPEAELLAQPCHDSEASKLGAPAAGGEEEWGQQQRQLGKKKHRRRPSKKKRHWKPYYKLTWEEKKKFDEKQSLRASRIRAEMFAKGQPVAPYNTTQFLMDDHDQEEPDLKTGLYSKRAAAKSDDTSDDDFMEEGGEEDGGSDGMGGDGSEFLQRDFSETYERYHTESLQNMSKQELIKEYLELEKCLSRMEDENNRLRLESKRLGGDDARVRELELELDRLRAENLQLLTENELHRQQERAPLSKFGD

With `C[C@@](Cc1ccc(O)c(O)c1)(NN)C(=O)O.O` [SCM, S-(−)-carbidopamonohydrate, reference compound] the “interaction between Hexim-1 and 7SK snRNP” value was “similarly detected”.
For `CN(C)C1CC23CCC4(O2)C(=CCC2(C)C(c5ccc6ccncc6c5)=CCC24)C=C3C(O)C1O` (centres unmarked) [dCA, didehydro-cortistatin A], the “interaction between Hexim-1 and 7SK snRNP” value was “similarly detected”.
